Test system: advanced ESCC
Test: Phase Ib/II clinical trial, anti-tumor activity study (RECIST v1.1), with biomarker subgroups
Type: in vivo, human
Method: From Mar. 9, 2017 to Aug.
PD-L1 was detected in formalin-fixed paraffin-embedded (FFPE) tumor tissue samples by immunohistochemistry (IHC) methods and verified on the VENTANA Benchmark Ultra system at the clinical center laboratory (Q2 laboratory, Beijing). The immunohistochemistry detection of PD-L1 was performed using the Spring Bioscience (Roche) rabbit anti-human PD-L1 monoclonal antibody (clone SP142, Cat No: M4422). The expression of PD-L1 on tumor cells (TCs) and tumor infiltrating immune cells (ICs) was assessed by certified pathologists using stained tumor tissue. The PD-L1 positive status is defined as the presence of tumor cells with membrane staining intensity ≥1% or the presence of PD-LI staining intensity of tumor infiltrating immune cells covering ≥1% of related, continuous pen-cancerous stromal tumor area in the tumor occupied by tumor cells.
During the clinical trial described in Example 1, tumor biopsy samples from 50 subjects were subjected to whole exome sequencing (WES). TMB was determined by analyzing somatic mutations within coding regions of the human genome.

[1] = 59 patients, investigator-assessed RECIST v1.1
[2] = patients with 11q13 amplification (n=24)
[3] = patients with low or no PD-L1 expression (5% cutoff)
[4] = patients without 11q13 amplification (n=26)
[5] = subjects with more than 5% PD-L1 expression
[6] = without vs. with 11q13 amplification

## toripalimab: humanized IgG4 anti-PD-1 mAb comprising light and heavy chain amino acid sequences set forth in SEQ ID NOs: 9 and 10 (WO2014206107)
59 patients
  ORR confirmed: 15.3%
59 patients, RECIST v1.1
  DCR: 47.5%
  Optimal response rate: 18.6%
[1]
  CR: 1 case
  PR (including 2 cases of undiagnosed PR): 10 cases
59 subjects, as of Dec. 31, 2018
  Subjects who had died: 67.8%
PD-L1 negative subjects
  Median PFS: 2.0 months
  ORR: 18.4%
  OS: 6.9 months
PD-L1 positive patients
  OS: 6.7 months
PD-L1 positive patients (≥1% TC or IC, SP142 IHC)
  ORR: 15.8%
PD-L1 positive subjects
  Median PFS: 3.4 months
TMB equal to or greater than 12 mutations/Mb (n=11)
  OR: 18.2%
TMB less than 12 mutations/Mb (n=36)
  OR: 19.4%
Total, 59 people
  Optimal response (%): 18.6%
All patients
  Mean response time: 1.8 months
  Median OS: 6.9 months
  Median PFS: 2.1 months
  Median duration of response: 11.2 months
  Subjects with arbitrary size reduction in target lesions relative to baseline: 42.4%
High TMB (≥12)
  OS: 11.5 months
  PFS: 4.0 months
Low TMB (<12)
  OS: 6.7 months
  PFS: 1.9 months
Patients with 11q13 amplification
  Median OS: 5.6 months
[2]
  Objective response rate: 42
  PFS: 1.0 month
[3]
  DCR: 42.3%
  ORR: 15.4%
Patients without 11q13 amplification
  Median OS: 11.5 months
[4]
  Objective response rate: 30.8%
  PFS: 3.7 months
Subgroup Age >60, 29 people
  Optimal response (%): 20.7%
Subgroup Age ≤60, 30 people
  Optimal response (%): 16.7%
Subgroup ECOG 0, 5 people
  Optimal response (%): 40.0%
Subgroup ECOG 1, 54 people
  Optimal response (%): 16.7%
Subgroup LDH >ULN, 14 people
  Optimal response (%): 28.6%
Subgroup LDH Normal, 45 people
  Optimal response (%): 15.6%
Subgroup Liver metastasis No, 43 people
  Optimal response (%): 18.6%
Subgroup Liver metastasis Yes, 16 people
  Optimal response (%): 18.8%
Subgroup Prior treatment 1, 13 people
  Optimal response (%): 15.4%
Subgroup Prior treatment 2, 19 people
  Optimal response (%): 15.8%
Subgroup Prior treatment 3+, 27 people
  Optimal response (%): 22.2%
Subgroup Sex Female, 7 people
  Optimal response (%): 14.3%
Subgroup Sex Male, 52 people
  Optimal response (%): 19.2%
Subgroup Tumor volume (baseline target lesion) >100 mm, 13 people
  Optimal response (%): 15.4%
Subgroup Tumor volume (baseline target lesion) ≤100 mm, 46 people
  Optimal response (%): 19.6%
[5]
  DCR: 100%
  ORR: 40%
[6]
  HR for OS: 0.60
  HR for PFS: 0.47
